Data as given in US8466176B2 (priority 2008, dated 2013).

assay: logP(HCOOH) reported with HPLC/MS; details: HCOOH (formic acid), logP(HCOOH), HPLC/MS

| SMILES | chromatographic logP |
| --- | --- |
| Cn1nnnc1C(=NOCc1cccc(C=NO)n1)c1ccccc1 [Example 177, N-({6-[(hydroxyimino)methyl]pyridin-2-yl}methoxy)-1-(1-methyl-1H-tetrazol-5-yl)-1-phenylmethanimine] | 2.16 |

same assay, conditions: HPLC, logP(HCOOH), HPLC/MS

| SMILES | chromatographic logP |
| --- | --- |
| Cc1sc(Br)nc1CON=C(c1ccccc1)c1nnnn1C [Example 175, N-[(2-bromo-5-methyl-1,3-thiazol-4-yl)methoxy]-1-(1-methyl-1H-tetrazol-5-yl)-1-phenylmethanimine] | 3.37 |

same assay, conditions: method [a]: HPLC on reversed phase columns, pH 2.3 with 0.1% phosphoric acid and acetonitrile as eluent

| SMILES | log p |
| --- | --- |
| Cn1nnnc1C(=NOCc1cccc(C(O)CCc2ccccc2)n1)c1ccccc1 (stereo not drawn) [Example 176] | 3.35^[a] |
| Cn1nnnc1C(=NOCc1cccc(NCC2CCC2)n1)c1ccccc1 [Example 178] | 1.98^[a] |
| Cn1nnnc1C(=NOCc1cccc(NCC2CC2(F)F)n1)c1ccccc1 (stereo not drawn) [Example 179] | 2.17^[a] |
| Cn1nnnc1C(=NOCc1cccc(NCCCCC2CCCCC2)n1)c1ccccc1 [Example 180] | 3.55^[a] |
| CCOCCOCCNc1cccc(CON=C(c2ccccc2)c2nnnn2C)n1 [Example 197] | 1.7^[a] |
| Cn1nnnc1C(=NOCc1cccc(NCCCC2CCCCC2)n1)c1ccccc1 [Example 200] | 3.17^[a] |
| Cn1nnnc1C(=NOCc1cccc(C=NN=CC2CC=CCC2)n1)c1ccccc1 (stereo not drawn) [Example 201] | 4.16^[a] |

same assay, conditions: method [b]: LC-MS, pH 2.7 with 0.1% formic acid in water and acetonitrile (0.1% formic acid), linear gradient 10% to 95% acetonitrile

| SMILES | log p |
| --- | --- |
| CCCC#Cc1nc(CON=C(c2ccccc2)c2nnnn2C)c(C)s1 [Example 182] | 4.24^[b] |
| CCCCC#Cc1nc(CON=C(c2ccccc2)c2nnnn2C)c(C)s1 [Example 183] | 3.37^[b] |
| Cc1sc(C#CCC2CCCCC2)nc1CON=C(c1ccccc1)c1nnnn1C [Example 184] | 5.62^[b] |
| Cc1sc(C#CCC2CCCC2)nc1CON=C(c1ccccc1)c1nnnn1C [Example 185] | 5.2^[b] |
| Cc1sc(C#CCCc2ccccc2)nc1CON=C(c1ccccc1)c1nnnn1C [Example 187] | 4.65^[b] |
| CCCC(C)C#Cc1nc(CON=C(c2ccccc2)c2nnnn2C)c(C)s1 (stereo not drawn) [Example 188] | 5.06^[b] |
| Cc1sc(C#CC(C)C)nc1CON=C(c1ccccc1)c1nnnn1C [Example 189] | 4.21^[b] |
| Cc1sc(C#CC2CCCC2)nc1CON=C(c1ccccc1)c1nnnn1C [Example 190] | 4.75^[b] |
| Cn1nnnc1C(=NOCc1csc(C#Cc2ccc(C#N)cc2)n1)c1ccccc1 [Example 191] | 3.76^[b] |
| COc1ccc(C#Cc2nc(CON=C(c3ccccc3)c3nnnn3C)cs2)cc1 [Example 192] | 4.14^[b] |
| Cn1nnnc1C(=NOCc1csc(C#CCCCCl)n1)c1ccccc1 [Example 193] | 3.8^[b] |
| Cn1nnnc1C(=NOCc1csc(C#Cc2ccc3ccccc3c2)n1)c1ccccc1 [Example 194] | 4.92^[b] |
| COC(=O)CCCC#Cc1nc(CON=C(c2ccccc2)c2nnnn2C)cs1 [Example 195] | 3.33^[b] |
| COC(C)(C)C#Cc1nc(CON=C(c2ccccc2)c2nnnn2C)cs1 [Example 196] | 3.53^[b] |
| Cn1nnnc1C(=NOCc1csc(C#CCCO)n1)c1ccccc1 [Example 198] | 2.3^[b] |
| CCSCC#Cc1nc(CON=C(c2ccccc2)c2nnnn2C)cs1 [Example 199] | 3.78^[b] |
| CCCCc1ccc(C#Cc2nc(CON=C(c3ccccc3)c3nnnn3C)cs2)cc1 [Example 202] | 5.82^[b] |
| Cn1nnnc1C(=NOCc1cccc(NCCOC2CCCCC2)n1)c1ccccc1 [Example 203] | 2.35^[b] |
| Cn1nnnc1C(=NOCc1cccc(NCCOC2CCCC2)n1)c1ccccc1 [Example 204] | 2.14^[b] |
| Cn1nnnc1C(=NOCc1cccc(NCC2CC2(Cl)Cl)n1)c1ccccc1 (stereo not drawn) [Example 205] | 2.75^[b] |
| Cn1nnnc1C(=NOCc1cccc(C#Cc2cccs2)n1)c1ccccc1 [Example 206] | 3.94^[b] |

same assay, conditions: reversed phase HPLC column, pH 2.7, log p, method [b]: LC-MS, pH 2.7 with 0.1% formic acid in water and acetonitrile (0.1% formic acid), linear gradient 10% to 95% acetonitrile

| SMILES | chromatographic logP |
| --- | --- |
| Cc1sc(Br)nc1CON=C(c1ccccc1)c1nnnn1C [Example 175, N-[(2-bromo-5-methyl-1,3-thiazol-4-yl)methoxy]-1-(1-methyl-1H-tetrazol-5-yl)-1-phenylmethanimine] | 3.37 |
| Cc1sc(C#CC2CC2)nc1CON=C(c1ccccc1)c1nnnn1C [Example 181] | 3.83 |

same assay, conditions: reversed phase HPLC columns, pH 2.3, log p, method [a]: HPLC on reversed phase columns, pH 2.3 with 0.1% phosphoric acid and acetonitrile as eluent

| SMILES | chromatographic logP |
| --- | --- |
| Cn1nnnc1C(=NOCc1cccc(C=NO)n1)c1ccccc1 [Example 177, N-({6-[(hydroxyimino)methyl]pyridin-2-yl}methoxy)-1-(1-methyl-1H-tetrazol-5-yl)-1-phenylmethanimine] | 2.16 |
